“Also recorded” adds a separate entry of the source.
Legend:
[1] = ELISA and TLC overlay assays of antibodies raised against the synthetic analog; format: in vivo
Method: Immunostaining of membrane lipids was performed as previously described (15). Developed chromatogram plates, containing lipid spots, were coated with polyisobutyl-methacrylate solution (0.05% in hexane) and allowed to dry. The plates were then blocked with PBS containing 1% BSA and 0.05% tween 20 for 15 minutes, and then incubated with anti BBGL-II antiserum, diluted 1:100 in PBS-BSA buffer for 1 hour at 22° C. The plates were rinsed 5 times with PBS-BSA buffer and incubated with alkaline phosphatase-conjugated rat anti mouse IgG (KPL, MD) diluted 1:25,000 in PBS-BSA for 1 hour at 22° C. The plates were then washed, and developed using BCIP/NBT (KPL, MD).

[2] = test system: mice; experiment: Immunization of mice with glycolipid, antibody titers by ELISA; format: in vivo, NIH Swiss albino mice
Method: FIG. 11 is a graph showing antibody titers of sera from ice immunized with the glycolipid of formula B. Mice (10 mice per group) were immunized as described below, with the glycolipid of formula B in Freund's adjuvant (CFA); PBS; DMSO, or squalene. Antibody titers were determined by an ELISA in sera diluted 1:100, and are represented as an average of three independent assays. Brackets, standard deviation.
(§1) Immunization and Immunostaining—Groups of ten female NIH Swiss albino mice (5-6 weeks old, general purpose) were immunized intraperitoneally with 2 doses of BBGL-II emulsified in complete Freund's adjuvant (first dose) or incomplete Freund's adjuvant (second dose) two weeks apart. The doses contained 10 μg BBGL-II per 0.1 ml and were administered IP in 0.1 ml. Alternatively, mice were immunized three times, 2 weeks apart, with 10 μg of BBGL-II emulsified in 0.1 ml of DMSO, squalene, or PBS. Mice were bled 2 weeks after the second dose and the sera thus obtained was kept at −20° C. until used. Rabbits (females, New Zealand White, 8 weeks old) were immunized with two doses of BBGL-II, 75 μg each, in Fruend's adjuvant, administered i.m. and i.c. in 20×0.05 ml.

[3] = test system: rabbits; experiment: Immunization of rabbits with glycolipid, antibody titers by ELISA; format: in vivo, New Zealand White rabbits
Method: FIG. 10 is a graph showing antibody titers of sera from rabbits immunized with the glycolipid of formula B. Antibody titers were measured by an ELISA, as described below, and represent an average of four different rabbit sera, diluted 1:100, each tested in three independent assays. Open bars, IgG titers; gray bars, IgM titers; brackets, standard deviation.
as §1

[4] = Antibodies induced by BBGL-III (data not shown); format: in vivo
[5] = test system: immobilized polymixin B on agarose; experiment: Affinity chromatography on Detoxi-Gel Endotoxin Removing Gel; format: binding; conditions: sonicated B. burgdorferi cells loaded; bound material eluted with 1% deoxycholic acid; TLC and immunolabeling
Method: Affinity Chromatography—BBGL-II was also purified by affinity chromatography using Detoxi-Gel Endotoxin Removing Gel (Pierce, Rockford, Ill.). Borrelia cells were washed 5 times with PBS, resuspended in the same buffer, and disrupted by ultrasonic treatment for 30 seconds, in a Branson sonifier operated at 50% duty cycles at 100 W. Membranes were separated from the soluble fraction by centrifugation at 37000 g for 30 minutes, and the supernatant (1 ml containing 1 mg total protein) was loaded on a detoxi-gel (agarose-immobilized-polymixin B) column (0.9×10 cm). The column was washed with 10 bed-volumes of PBS. Elution of the bound material was performed by washing with 10 bed volumes of PBS containing 1% Deoxycholic acid (w/v), according to the manufacturer's instructions. The bound fraction was dialyzed against distilled water, lyophilized, and lipids were extracted as mentioned.
This resin consists of immobilized polymixin B on agarose, and is used for the removal of endotoxins by binding to the lipid A portion of LPS.

Compound: CC(C)CCCC(C)C1CCC2C3CC=C4CC(OC5OC(COC(=O)CCCCCCCCCCCCCCCN=[N+]=[N-])C(O)C(O)C5O)CCC4(C)C3CCC12C (stereo not shown) [compound 19]
- antibodies raised, compared with purified native BBGL-II [1]: to the same extent as with the purified native BBGL-II

Compound: CCCCCCCCCCCCCCCC(=O)OC[C@H]1O[C@@H](O[C@H]2CC[C@@]3(C)C(=CC[C@H]4[C@@H]5CC[C@H]([C@H](C)CCCC(C)C)[C@@]5(C)CC[C@@H]43)C2)[C@H](O)[C@@H](O)[C@H]1O [BBGL-II, cholesteryl 6-O-palmitoyl-β-D-galactopyranoside]
- relative immunogenicity by formulation ([2]; in PBS (likely as micelles) compared with solute in DMSO or squalene): more immunogenic than as a solute in DMSO or squalene
- isotype of elicited antibodies ([2]; mice): mostly of the IgM isotype
- specificity of elicited antibodies ([2]; mice): specific to the homologous glycolipid
- induction of antibodies ([2]; mice injected with various formulations): Specific antibodies were induced; also recorded: elicited antibodies
- antibody titers by formulation ([2]; with Freund's adjuvant, compared with PBS, DMSO, squalene): Highest titers
- isotype of elicited antibodies [3]: mostly of the IgM isotype
- specificity of elicited antibodies [3]: specific to the homologous glycolipid
- induction of antibodies ([3]; Freund's adjuvant): Specific antibodies were induced; also recorded: elicited antibodies

Compound: 1,2-diacyl-3-[O-α-D-galactopyranosyl]-sn-glycerol [BBGL-III]
- isotype of induced antibodies ([4]; data not shown): mostly IgM
- induction of antibodies ([4]; data not shown, species not stated): induced antibodies; also recorded: elicited antibodies
- reactivity of induced antibodies with BBGL-II and BBGL-III ([4]; in vivo): reacted with both glycolipids
- binding to Detoxi-Gel (polymixin B) column [5]: not bound to the column
